Experimental data taken from patent US6500823B1, “Unsaturated hydroximic acid derivatives as per abstract inhibitors” (N-Gene Research Laboratories, Inc., priority 1998, dated 2002).
Counter-ions that a name gives are not always drawn.

How the values were obtained:
[1] = system: male SPRD rats; experiment: Reperfusion induced arrhythmia after LAD occlusion, survival rate; format: in vivo, rat; conditions: for responders at 5 mg/kg: Rattus norvegicus, iv, control 15.38, read-out: % SURV; for effect on survival of reperfusion arrhythmia, in words: compared with Example 2 (100% survival)
Method: Experiments were carried out in male SPRD rats (acceptable body weight range: 300-350 g). The animals were anesthetized with sodium pentobarbital (Nembutal®: 60 mg/kg intraperitoneally) and remained breathing spontaneously. The animals were ventilated with respirator (MTA Kutesz) by using trachea cannule which was inserted after tracheotomy. The standard lead of the ECG II is monitored. Right femoral artery was catheterized and connected to a pressure transducer (BPR-01, Experimetria, Hungary), a preamplifier and pulsotachometer (HG-M, Experimetria, Hungary) for arterial blood pressure and heart rate measurement, respectively. The external jugular vein was cannulated for drug administration. After thoracotomy a silk (braided, coated 4-0) was placed under the left anterior coronary (LAD) artery. After a few minutes' stabilization period, a 5 min occlusion of LAD artery was applied, followed by a 10 min reperfusion period. The survival rate was evaluated.

[2] = system: HepG2 cells; experiment: LDH enzyme activity in hypoxia exposed HepG2 cells; format: cell-based; conditions: Homo sapiens, 30 μg/ml, hypoxia 1% O2 24 hours, Hypoxic control = 100, read-out: Relative LDH content, %
Method: HepG2 cell were cultured in DMEM medium supplemented with 10% FCS in 5% CO2 containing air at 37° C. 10^5 cells were plated in the wells of Costar 24-well culture plates in 1 ml medium. On the following day, cells were treated with the test compounds in a concentration of 30 μg/ml, then cells were exposed to hypoxia treatment (1% O2, 5% CO2 in nitrogen gas) for 24 hours. A part of the control cultures were treated with water used as the solvent, and another part of them was not exposed to hypoxia. At the end of the hypoxic treatment, medium was removed and cells were washed twice with cold PBS. Cells lysates were prepared in 0.05% Triton X-100 containing phosphate buffer (0.05 M) and after centrifugation (2 min. […]) the LDH activity of the supernatant was determined on the basis of NADH consumption in the presence of sodium piruvate substrate.
The LDH activity of the cells treated with the test compounds and compared to the activity of the control exposed to hypoxia is shown in Table 6.

[3] = molecular target: T1, poly-ADP-ribose polymerase from rat liver (Rattus norvegicus, UniProt P27008); experiment: In vitro PARP inhibition on isolated enzyme; format: biochemical; conditions: for IC50: isolated rat liver enzyme, ± SEM from four parallel measurements, read-out: PARP I0.5 mg/l (converted)
T1 construct: We have isolated the poly-ADP-ribose polymerase from rat liver; from tissue; host or cells: rat liver
Method: We have isolated the poly-ADP-ribose polymerase from rat liver according to the article Shah.G. M.,Anal Biochem, 227, 1-13 (1995).
We have determined the PARP activation in 130 μl of reaction mixture, which consists of: 100 mM Tris-HCl puffer, pH 8.0, 10 mM MgCl2, 10% glycerol, 1.5 mM DTT, 100 μg of (32P), or (3H), NAD+, 10 μg of histone. We have stopped the reaction after 10 minutes with 8% perchloric acid and seperated the protein through centrifugation (10 minutes, 10.000×g). We have washed the precipitate with 8% perchloric acid, and we measured the radioactivity connected to the protein with scintillation counter.

[4] = system: mouse HSP-70 gene promoter in mouse fibroblast L929 cells; experiment: HSP-70 promoter-luciferase reporter gene assay; format: cell-based; conditions: Control = 100; 10 μl of 10^-2 M solution to 1 ml culture, 30 min, 1 hour regeneration
From the text: The activity of HSP-70 was studied by reporter gene assay forming a DNA hybrid. To the promoter sequence of HSP-70 encoding the heat shock protein was fused a gene of a protein that can be detected by a well-measurable enzyme activity. Biotechnological processes were used. As reporter gene luciferase enzyme was employed, the activity of which can be well determined by luminescence measurement. If the promoter of the gene of the luciferase enzyme is substituted by the promoter of the HSP-70 gene, then the change in the activity of the luciferase enzyme i.e. the change of the frequency of the transcription from the gene correlates with the frequency of the transcription of the HSP-70 gene that proceeds in the given circumstances. In this way, if a substance or process influences the expression of the HJSP-70 gene, the effect can be studied through the measurement of the luciferase enzyme activity. The effect of the substances to be tested on the HSP-70 expression was studied in such an experimental system.
A double-stranded DNA circular molecule i.e. a plasmid containing the HSP-70 reporter gene was constructed to perform the measurements. An almost 600 bp long sequence of the mouse HSP-70 gene promoter (5′ direction from the start site of the gene) was fused to the coding sequence of the luciferase gene originated from Photymus pyralis. The applied promoter sequence contained several protein binding sites facilitating the expression of the HSP-70 gene. The HSP promoter-luciferase heterologous gene construct was built in a pBR based plasmid vector that can be selected for neomycin. This HSP-70-luciferase plasmid was transfected into mouse fibroblast L929 cells. The assay was performed as follows.
The HSP-70-luc plasmid containing L929 cells are grown in DMEM (Dulbecco's Modified Eagle's Medium) medium supplemented with 5% FCS (Fetal Calf Serum). 10^4 cells are plated in the wells of a 24-well Costar cell culture plate in 1 ml of culture medium. Test substances are dissolved in PBS (Phosphate Buffered Saline) in 10^−2 M concentration. After attachment of the cells (3-4 hours after plating) 10 μl of the solution are given to the cultures and cells are incubated for 30 min. at 37° C. in a CO2 thermostat. Culture medium is then changed for fresh one (without test substance) and cells are allowed to regenerate for 1 hour at 37° C., then once washed with PBS. After removal of PBS 40 μl of 1× lysis buffer are added to the cells, and the samples are kept on ice for 30 minutes. Then the samples are transferred into Eppendorf vials and centrifuged at 14000 rpm for 20 min at 4° C. 5 μl of the supernatant is added to 25 μl of luciferase assay buffer and the luminescence of the samples is measured for 25 seconds in a luminometer.

[5] = molecular target: Moloney murine leukemia virus reverse transcriptase (Moloney murine leukemia virus, UniProt P03355); experiment: Reverse transcriptase inhibition, (3H)dTTP incorporation; format: biochemical; conditions: for inhibition at 2 µg/mL: concentration 2 μg/ml
Method: The compounds may be sorted into group of the non-nucleoside type reverse transcriptase inhibitors. Tests were performed on Moloney murine leukemia virus reverse transcriptase that is considered as a good model of the HIV reverse transcriptase enzyme. The experimental assembly was the following.
The assay measures the incorporation of (3H)dTTP into cDNA using poly(dA) template and oligo(dT)12-18 primer. The reaction was carried out in 20 μl volume.
The reaction was started by addition of 5U reverse transcriptase
The reaction mixture was incubated for 40 min at 37° C. Then 15 μl of the reaction mixture was loaded on Whatman DE81 filter discs and filters were washed sequentially with 5% disodium hidrogen phosphate buffer, with water and with 96% (v/v) ethanol. After drying, the filters were placed into scintillation cocktail (OptiPhase, HiSafe, Wallac) and the radioactivity was measured in a Packard Tri-Carb 2200 scintillation counter.
Two compounds with known inhibitory activity were used in the experiments as positive control. AZT is a nucleoside analog while the compound Nevirapin is a non-nucleoside type inhibitor. Nevirapine binds to the so called benzodiazepine binding site of the enzyme. The applied concentrations of the test compounds were in the 0.2-2 μg/ml concentration range.

T1 sequence (P27008 whole entry): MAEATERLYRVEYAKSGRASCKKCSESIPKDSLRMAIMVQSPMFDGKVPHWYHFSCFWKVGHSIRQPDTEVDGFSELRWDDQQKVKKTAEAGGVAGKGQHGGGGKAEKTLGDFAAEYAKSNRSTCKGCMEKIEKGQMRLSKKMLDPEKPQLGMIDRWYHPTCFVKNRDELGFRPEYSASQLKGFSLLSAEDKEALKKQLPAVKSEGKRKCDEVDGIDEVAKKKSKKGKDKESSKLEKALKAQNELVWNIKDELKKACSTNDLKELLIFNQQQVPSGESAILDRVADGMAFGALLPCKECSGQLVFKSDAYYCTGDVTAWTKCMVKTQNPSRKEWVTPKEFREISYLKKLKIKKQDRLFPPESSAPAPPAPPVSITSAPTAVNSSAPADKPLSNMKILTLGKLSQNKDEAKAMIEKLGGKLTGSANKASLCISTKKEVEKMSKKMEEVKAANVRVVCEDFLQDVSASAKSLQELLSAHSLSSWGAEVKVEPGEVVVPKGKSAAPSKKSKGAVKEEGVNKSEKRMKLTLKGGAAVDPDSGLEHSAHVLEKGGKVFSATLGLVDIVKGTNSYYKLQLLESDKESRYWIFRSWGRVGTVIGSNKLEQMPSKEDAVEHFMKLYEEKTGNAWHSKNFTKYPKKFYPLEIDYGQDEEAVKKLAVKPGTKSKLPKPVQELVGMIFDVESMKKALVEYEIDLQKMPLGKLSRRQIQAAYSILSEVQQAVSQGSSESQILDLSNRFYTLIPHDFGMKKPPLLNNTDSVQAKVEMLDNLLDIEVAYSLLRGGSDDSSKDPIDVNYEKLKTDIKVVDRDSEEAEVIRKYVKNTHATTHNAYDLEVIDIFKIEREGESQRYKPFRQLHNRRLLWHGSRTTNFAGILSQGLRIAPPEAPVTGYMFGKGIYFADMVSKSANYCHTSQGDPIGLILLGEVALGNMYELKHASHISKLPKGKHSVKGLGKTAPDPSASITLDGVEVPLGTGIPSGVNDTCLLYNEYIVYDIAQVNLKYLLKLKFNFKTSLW

IC50 [3]	SMILES	responders at 5 mg/kg [1]	activity at 30 µg/mL [2]	further results
51.5 µM	COc1ccc(C=CC(N)=NOCC(O)CN2CCCC2)cc1OC (stereo not drawn) [Example 16, O-(3-Pyrrolidino-2-hydroxy-propyl)-3,4-dimethoxycinnamic Acid Amidoxime Dihydrochloride]		120%	
19.4 µM	COc1ccc(C=CC(N)=NOCC(O)CN2CCc3ccccc3C2)cc1OC (stereo not drawn) [Example 12, O-[3-(1,2,3,4-Tetrahydro-2-isoquinolyl)-2-hydroxy-propyl]-3,4-dimethoxy-cinnamic Acid Amidoxime Dihydrochloride]			
51.7 µM	NC(C=Cc1cccnc1)=NOCC(O)CN1CCCC1 (stereo not drawn) [Example 17, O-(3-Pyrrolidino-2-hydroxy-propyl)-3-(3-pyridyl)acrylic Acid Amidoxime Hydrochloride]		118%	
55.5 µM	NC(C=Cc1cccnc1)=NOCC(O)CN1CCOCC1 (stereo not drawn) [Example 10, O-(3-Morpholino-2-hydroxy-propyl)-3-(3-pyridyl)-acrylic Acid Amidoxime Hydrochloride]			
34 µM	NC(C=Cc1cccnc1)=NOCC(O)CN1CCc2ccccc2C1 (stereo not drawn) [Example 13, O-(3-(1,2,3,4-Tetrahydro-2-isoquinolyl)-2-hydroxy-propyl)-3-(3-pyridyl) Acrylic Acid Amidoxime Dihydrochloride]			Activity (HSP-70 promoter luciferase) [4]: 156
19.2 µM	CC(C)(C)NCC(O)CON=C(Cl)C=Cc1cccnc1 (stereo not drawn) [Example 31, N-(3-t.Butylamino-2-hydroxy-propoxy)-3-(3 pyridyl)acrylimidoyl Chloride Hydrogen Maleate]			
15.8 µM	OC(CON=C(Cl)C=Cc1cccnc1)CN1CCOCC1 (stereo not drawn) [Example 33, N-(3-Morpholino-2-hydroxy-propoxy)-3-(3-pyridyl)acrylimidoyl Chloride Hydrogen Maleate]			
65.7 µM	NC(C=Cc1ccccc1)=NOCC(O)CN1CCCC1 (stereo not drawn) [Example 15, O-3-Pyrrolidino-2-hydroxy-propyl) Cinnamic Acid Amidoxime dihydrochloride]			Activity (HSP-70 promoter luciferase) [4]: 115
609 µM	NC(C=C1CCCCC1)=NOCC(O)CN1CCCCC1 (stereo not drawn) [Example 19, O-(3-Piperidino-2-hydroxy-propyl)cyclohexyldene Acetamidoxime]			PARP inhibitor classification in words ([3]; conclusion on Table 1): very poor PARP inhibitor

Second part, the compound before the results:

SMILES	IC50 [3]	responders at 5 mg/kg [1]	activity at 30 µg/mL [2]	further results
ClC(C=Cc1cccnc1)=NOCCCN1CCCCC1.O=C(O)/C=C\C(=O)O [Example 32, N-(3-Piperidino-propoxy)-3-(3-pyridyl)acrylimidoyl Chloride Hydrogen Maleate]		71.4%		effect on survival of reperfusion arrhythmia, in words [1]: similarly outstanding effect
COc1ccc(C=CC(N)=NOCC(O)CNC(C)(C)C)cc1OC (stereo not drawn) [Example 8, O-(3-t.Butylamino-2-hydroxy-propyl)-3,4-dimethoxycinnamic Acid Amidoxime Dihydrochloride]	28.5 µM	37.5%	116%	
OC(CON=C(Cl)C=Cc1ccccc1)CN1CCCC1 (stereo not drawn) [Example 26, N-(3-Pyrrolidino-2-hydroxy-propoxy)-3-phenyl Acrylimidoyl Chloride]			112%	
NC(C=Cc1ccccc1)=NOCC(O)CN1CCOCC1 (stereo not drawn) [Example 7, O-(3-Morpholino-2-hydroxy-propyl)-cinnamic Acid Amidoxime]	22.9 µM	42%	141%	
NC(C=Cc1cccnc1)=NOCC(O)CN1CCCCC1 (stereo not drawn) [Example 5, O-(3-Piperidino-2-hydroxy-propyl)-3-(3-Pyridyl)acrylic Acid Amidoxime Dihydrochloride]	58.1 µM	50%		inhibition at 1 µg/mL ([5]; concentration 1.0 μg/ml, read-out: Enzyme inhibition, %): 52%; inhibition at 2 µg/mL ([5]; read-out: Enzyme inhibition, %): 57%; reverse transcriptase inhibiting effect compared with Nevirapin and AZT, in words ([5]; dose dependent, lower than AZT): higher than that of Nevirapin; Activity (HSP-70 promoter luciferase) [4]: 199
NC(C=Cc1ccccc1)=NOCC(O)CN1CCc2ccccc2C1 (stereo not drawn) [Example 11, O-[3-(1,2,3,4-Tetrahydro-2-isoquinolyl)-2-hydroxy-propyl)]cinnamic Acid Amidoxime Dihydrochloride]	51.2 µM	20%	124%	
CC(C)(C)NCC(O)CON=C(N)C=Cc1cccnc1 (stereo not drawn) [Example 14, O-(3-t.Buthylamino-2-hydroxy-propyl)-3-(3-pyridyl)acrylic Acid Amidoxime Dihydrochloride]	44.5 µM	43%		
COc1ccc(C=CC(N)=NOCC(O)CN2CCCCC2)cc1OC (stereo not drawn) [Example 18, O-(3-Piperidino-2-hydroxy-propyl)-3,4-dimethoxycinnamic Acid Amidoxime]	93.8 µM	67%		effect on survival of reperfusion arrhythmia, in words [1]: similarly outstanding effect
COc1ccc(C=CC(N)=NOCC(O)CN2CCOCC2)cc1OC (stereo not drawn) [Example 9, O-(3-Morpholino-2-hydroxy-propyl-3,4-dimethoxycinnamic Acid Amidoxime Hydrochloride]	35.6 µM			
CC(C)(C)NCC(O)CON=C(N)C=Cc1ccccc1 (stereo not drawn) [Example 6, O-(3-t.Buthylamino-2-hydroxy-propyl)-cinnamic Acid Amidoxime]	27.5 µM			Activity (HSP-70 promoter luciferase) [4]: 302
Cc1ccnc2c1NC(=O)c1cccnc1N2C1CC1 [Nevirapin, reference compound]				inhibition at 0.2 µg/mL ([5]; concentration 0.2 μg/ml, read-out: Enzyme inhibition, %): 21%; inhibition at 2 µg/mL ([5]; read-out: Enzyme inhibition, %): 26%
